Assay results: ChEMBL document CHEMBL1201862, “PubChem BioAssay data set” (2004)
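How tested: cells in 96-well plates exposed to compound for 48 hours at five concentrations. At the GI50, growth is halved.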 The source made the active and inactive calls. Cut-off read from the data, not from the text of the source: active = GI50 up to about 1.1 µM and inactive = higher.

Columns and labels:
Assay in all cases: NCI-60 cell line screen, 48 h
786-0 = system: 786-0
A498 = system: A498
A549 = system: A549
ACHN = system: ACHN
BT-549 = system: BT-549
CAKI-1 = system: CAKI-1
CCRF-CEM = system: CCRF-CEM
COLO 205 = system: COLO 205
DU-145 = system: DU-145
EKVX = system: EKVX
HCC 2998 = system: HCC 2998
HCT-116 = system: HCT-116
HCT-15 = system: HCT-15
HL-60 = system: HL-60
HOP-62 = system: HOP-62
HOP-92 = system: HOP-92
HT-29 = system: HT-29
Hs-578T = system: Hs-578T
IGROV-1 = system: IGROV-1
K562 = system: K562
KM12 = system: KM12
LOX IMVI = system: LOX IMVI
M14 = system: M14
MCF7 = system: MCF7
MDA-MB-231 = system: MDA-MB-231
MDA-MB-435 = system: MDA-MB-435
MDA-N = system: MDA-N
MOLT-4 = system: MOLT-4
Malme-3M = system: Malme-3M
NCI-H226 = system: NCI-H226
NCI-H23 = system: NCI-H23
NCI-H460 = system: NCI-H460
NCI-H522 = system: NCI-H522
NCI/ADR-RES = system: NCI/ADR-RES
OVCAR-3 = system: OVCAR-3
OVCAR-4 = system: OVCAR-4
OVCAR-5 = system: OVCAR-5
OVCAR-8 = system: OVCAR-8
PC-3 = system: PC-3
RPMI-8226 = system: RPMI-8226
RXF 393 = system: RXF 393
SF-268 = system: SF-268
SF-295 = system: SF-295
SK-MEL-28 = system: SK-MEL-28
SK-MEL-2 = system: SK-MEL-2
SK-MEL-5 = system: SK-MEL-5
SK-OV-3 = system: SK-OV-3
SN12C = system: SN12C
SNB-19 = system: SNB-19
SNB-75 = system: SNB-75
SW-620 = system: SW-620
T47D = system: T47D
TK-10 = system: TK-10
U-251 = system: U-251
UACC-257 = system: UACC-257
UACC-62 = system: UACC-62
SF-539 = system: SF-539
SR = system: SR
UO-31 = system: UO-31

CCCCNc1c(CN)cnc2cc(Cl)ccc12
GI50 (786-0): 16.7 µM (inactive)
GI50 (A498): 15.4 µM (inactive)
GI50 (A549): 20.5 µM (inactive)
GI50 (ACHN): 22.6 µM (inactive)
GI50 (BT-549): 16.6 µM (inactive)
GI50 (CAKI-1): 21.1 µM (inactive)
GI50 (CCRF-CEM): 4.7 µM (inactive)
GI50 (COLO 205): 7.48 µM (inactive)
GI50 (DU-145): 28.1 µM (inactive)
GI50 (EKVX): 3.79 µM (inactive)
GI50 (HCC 2998): 2.73 µM (inactive)
GI50 (HCT-116): 15 µM (inactive)
GI50 (HCT-15): 17.1 µM
GI50 (HL-60): 0.394 µM (active)
GI50 (HOP-62): 14.1 µM (inactive)
GI50 (HOP-92): 15.9 µM (inactive)
GI50 (HT-29): 16.9 µM (inactive)
GI50 (Hs-578T): 17.6 µM (inactive)
GI50 (IGROV-1): 14.7 µM (inactive)
GI50 (K562): 13.9 µM (inactive)
GI50 (KM12): 15.5 µM (inactive)
GI50 (LOX IMVI): 15.4 µM (inactive)
GI50 (M14): 20 µM (inactive)
GI50 (MCF7): 14.5 µM (inactive)
GI50 (MDA-MB-231): 15.3 µM (inactive)
GI50 (MDA-MB-435): 15.6 µM (inactive)
GI50 (MDA-N): 16.1 µM (inactive)
GI50 (MOLT-4): 17 µM (inactive)
GI50 (Malme-3M): 19.2 µM (inactive)
GI50 (NCI-H226): 16.1 µM (inactive)
GI50 (NCI-H23): 19.3 µM (inactive)
GI50 (NCI-H460): 13 µM (inactive)
GI50 (NCI-H522): 18.8 µM (inactive)
GI50 (NCI/ADR-RES): 16.2 µM (inactive)
GI50 (OVCAR-3): 15 µM (inactive)
GI50 (OVCAR-4): 16.6 µM (inactive)
GI50 (OVCAR-5): 16.6 µM (inactive)
GI50 (OVCAR-8): 18.2 µM (inactive)
GI50 (PC-3): 16.8 µM (inactive)
GI50 (RPMI-8226): 16.4 µM (inactive)
GI50 (RXF 393): 14.5 µM (inactive)
GI50 (SF-268): 23.6 µM (inactive)
GI50 (SF-295): 14 µM (inactive)
GI50 (SK-MEL-28): 15.6 µM (inactive)
GI50 (SK-MEL-2): 17.8 µM (inactive)
GI50 (SK-MEL-5): 15.1 µM (inactive)
GI50 (SK-OV-3): 14.3 µM (inactive)
GI50 (SN12C): 18.4 µM (inactive)
GI50 (SNB-19): 22.9 µM (inactive)
GI50 (SNB-75): 19.8 µM (inactive)
GI50 (SW-620): 16.3 µM (inactive)
GI50 (T47D): 19.2 µM (inactive)
GI50 (TK-10): 15 µM (inactive)
GI50 (U-251): 16.4 µM (inactive)
GI50 (UACC-257): 13 µM (inactive)
GI50 (UACC-62): 15.6 µM (inactive)

CC(=O)c1nc2ccccc2n1CC(=O)c1ccc(Cl)cc1
GI50 (786-0): 3.13 µM (inactive)
GI50 (A498): 54.3 µM (inactive)
GI50 (A549): 3.17 µM (inactive)
GI50 (BT-549): 3.55 µM (inactive)
GI50 (CAKI-1): 5.25 µM (inactive)
GI50 (CCRF-CEM): 4.09 µM (inactive)
GI50 (COLO 205): 20.9 µM (inactive)
GI50 (DU-145): 13.4 µM (inactive)
GI50 (EKVX): 38.2 µM (inactive)
GI50 (HCT-116): 2.01 µM (inactive)
GI50 (HCT-15): 5.2 µM
GI50 (HL-60): 1.79 µM (inactive)
GI50 (HOP-62): 5.85 µM (inactive)
GI50 (HOP-92): 1.03 µM (active)
GI50 (HT-29): 12.1 µM (inactive)
GI50 (Hs-578T): 17.2 µM (inactive)
GI50 (IGROV-1): 1.39 µM (inactive)
GI50 (K562): 1.52 µM (inactive)
GI50 (KM12): 3.02 µM (inactive)
GI50 (LOX IMVI): 0.925 µM (active)
GI50 (M14): 2.92 µM (inactive)
GI50 (MCF7): 3.73 µM (inactive)
GI50 (MDA-MB-231): 2.79 µM (inactive)
GI50 (MDA-MB-435): 2.09 µM (inactive)
GI50 (MDA-N): 1.93 µM (inactive)
GI50 (MOLT-4): 4.05 µM (inactive)
GI50 (Malme-3M): 3.19 µM (inactive)
GI50 (NCI-H226): 12 µM (inactive)
GI50 (NCI-H23): 7.64 µM (inactive)
GI50 (NCI-H460): 2.45 µM (inactive)
GI50 (NCI-H522): 2.79 µM (inactive)
GI50 (NCI/ADR-RES): 2.94 µM (inactive)
GI50 (OVCAR-3): 4.37 µM (inactive)
GI50 (OVCAR-4): 5.26 µM (inactive)
GI50 (OVCAR-8): 2.4 µM (inactive)
GI50 (PC-3): 5.45 µM (inactive)
GI50 (RPMI-8226): 3.65 µM (inactive)
GI50 (RXF 393): 17.6 µM (inactive)
GI50 (SF-268): 3.94 µM (inactive)
GI50 (SF-295): 13.4 µM (inactive)
GI50 (SF-539): 7.36 µM (inactive)
GI50 (SK-MEL-28): 8.83 µM (inactive)
GI50 (SK-MEL-2): 14.7 µM (inactive)
GI50 (SK-OV-3): 28.1 µM (inactive)
GI50 (SN12C): 5.69 µM (inactive)
GI50 (SNB-19): 7.4 µM (inactive)
GI50 (SR): 4.84 µM (inactive)
GI50 (SW-620): 2.67 µM (inactive)
GI50 (T47D): 2.45 µM (inactive)
GI50 (TK-10): 61.2 µM (inactive)
GI50 (U-251): 2.99 µM (inactive)
GI50 (UACC-257): 5.68 µM (inactive)
GI50 (UACC-62): 2.02 µM (inactive)
GI50 (UO-31): 9.25 µM (inactive)

NS(=O)(=O)c1ccc(NC(=O)c2cc([N+](=O)[O-])cc([N+](=O)[O-])c2)cc1
GI50 (786-0): 76.2 µM (inactive)
GI50 (A498): 65.2 µM (inactive)
GI50 (A549): 42.6 µM (inactive)
GI50 (BT-549): > 100 µM (inactive)
GI50 (CAKI-1): > 100 µM (inactive)
GI50 (CCRF-CEM): 28.8 µM (inactive)
GI50 (COLO 205): 19.7 µM (inactive)
GI50 (DU-145): 59.7 µM (inactive)
GI50 (HCT-116): 45 µM (inactive)
GI50 (HCT-15): 44.3 µM
GI50 (HL-60): 32.1 µM (inactive)
GI50 (HOP-62): > 100 µM (inactive)
GI50 (HOP-92): 21.7 µM (inactive)
GI50 (HT-29): 43.1 µM (inactive)
GI50 (Hs-578T): 76.4 µM (inactive)
GI50 (IGROV-1): 23.6 µM (inactive)
GI50 (K562): 43.7 µM (inactive)
GI50 (KM12): 40.4 µM (inactive)
GI50 (LOX IMVI): 22.8 µM (inactive)
GI50 (M14): 47.8 µM (inactive)
GI50 (MCF7): 19.5 µM (inactive)
GI50 (MDA-MB-231): 39.4 µM (inactive)
GI50 (MDA-MB-435): 17.7 µM (inactive)
GI50 (MDA-N): 21.8 µM (inactive)
GI50 (MOLT-4): 68.9 µM (inactive)
GI50 (Malme-3M): 24.8 µM (inactive)
GI50 (NCI-H226): 46.5 µM (inactive)
GI50 (NCI-H23): 41.4 µM (inactive)
GI50 (NCI-H460): 31.8 µM (inactive)
GI50 (NCI/ADR-RES): > 100 µM (inactive)
GI50 (OVCAR-3): 25.8 µM (inactive)
GI50 (OVCAR-4): 27.7 µM (inactive)
GI50 (OVCAR-8): 47.3 µM (inactive)
GI50 (PC-3): 21.1 µM (inactive)
GI50 (RPMI-8226): 30.2 µM (inactive)
GI50 (RXF 393): > 100 µM (inactive)
GI50 (SF-268): 32.4 µM (inactive)
GI50 (SF-539): 30.7 µM (inactive)
GI50 (SK-MEL-28): > 100 µM (inactive)
GI50 (SK-MEL-2): 34.1 µM (inactive)
GI50 (SK-MEL-5): 38.7 µM (inactive)
GI50 (SK-OV-3): 80.4 µM (inactive)
GI50 (SN12C): 21.7 µM (inactive)
GI50 (SNB-19): 45.9 µM (inactive)
GI50 (SNB-75): > 100 µM (inactive)
GI50 (SR): 63.1 µM (inactive)
GI50 (SW-620): 66.4 µM (inactive)
GI50 (T47D): 18.8 µM (inactive)
GI50 (TK-10): > 100 µM (inactive)
GI50 (U-251): 37.8 µM (inactive)
GI50 (UACC-257): 12.8 µM (inactive)
GI50 (UACC-62): 15.7 µM (inactive)
GI50 (UO-31): 65.6 µM (inactive)
